US20220372014A1, “NEUROPROTECTIVE COMPOUNDS AND METHODS OF USE THEREOF” (The Johns Hopkins University, priority 2019, published 2022)
Entries after “also recorded” stand apart in the source; their conditions may differ.

Experiments:
HT 22 cells = assay: TNF-α and z-VAD-induced necroptosis, Alamar blue; type: cell-based; conditions: 1 ng/ml TNF-α with 50 μM z-VAD
Experimental: Graphs represent mean±s.e.m. ***P<0.0005, two-way ANOVA followed by Tukey's post hoc test (n=3). A PARP inhibitor, ABT-888 is used for the positive control. FIGS. 12B and 12C show in vitro oxidoreductase and tautomerase activity of MIF/PAAN with compound 41, 56, 76, or 77. FIGS. 12D and 12E show Alamar blue cell viability assay from SH-SY5Y cells pre-incubated with compound 41, 56, 76, or 77 in response to 0.5 μM staurosporine (STS) or from HT 22 cells incubated with 1 ng/ml of TNF-α with 50 μM z-VAD. A pan caspase inhibitor, z-VAD or necrostatin (Nec-1) is used for the positive control and PARP inhibitor, ABT-888 is used for negative control. Bars represent mean±s.e.m. ***P<0.0005, two-way ANOVA followed by Tukey's post hoc test (n=3). […] Bars represent mean±s.e.m. **P<0.005, ***P<0.0005, two-way ANOVA followed by Tukey's post hoc test (n=3).
FIGS. 14A-14G show the characterization of compound 121. […] Bars represent means±s.e.m. ***P<0.0005, two-way ANOVA followed by Tukey's post hoc test (n=4). […] Bars represent mean±s.e.m. ***P<0.0005, two-way ANOVA followed by Tukey's post hoc test (n=4). […] Bars represent means±s.e.m. **P<0.005, ***P<0.0005, one-way ANOVA followed by Tukey's post hoc test (n=3). […] Bar represent mean±s.e.m. ***P<0.0005, one-way ANOVA followed by Tukey's post hoc test (n=3). […] Quantification of inhibition of PARP-1 activity by compound 56, compound 121 and ABT-888 is shown. Graphs represent mean±s.e.m. ***P<0.0005, two-way ANOVA followed by Tukey's post hoc test (n=3). FIGS. 14F and 14G show Alamar blue cell viability assay from SH-SY5Y cells pre-incubated with either compound 56 or 121 in response to (14F) 0.5 μM staurosporine (STS) or (14G) from HT 22 cells incubated with 1 ng/ml of TNF-α with 50 μM z-VAD. Bars represent mean±s.e.m. ***P<0.0005, two-way ANOVA followed by Tukey's post hoc test (n=5).
(§1) Cell death and viability assessment. Primary cultured cortical neurons were treated with 5 μg/ml of α-syn PFF for 14 days and cell death was determined by staining of all nuclei with 7 μM Hoechst 33342 and dead cell nuclei with 2 μM propidium iodide (PI) (Invitrogen). The numbers of total and dead cells were counted with the Axiovision 4.6 software (Carl Zeiss). Cell viability was determined by fluorescence at an excitation wavelength 570 nm and an emission wavelength 585 nm using Alamar Blue (Invitrogen).

primary cortical neurons = assay: α-syn PFF-induced cell death in mouse primary cortical neurons (Hoechst and PI staining); type: cell-based; conditions: for α-syn PFF-induced cell death in mouse cortical neurons: pre-treated before α-syn PFF, Hoechst/PI; for toxicity when applied to primary cortical neurons: FIG. 12G
Experimental: Cell culture, transfection, primary neuronal culture and treatment. SH-SY5Y cells (ATCC) were cultured in DMEM containing 10% fetal bovine serum and penicillin/streptomycin at 37° C. under 5% C02. The cells were transfected using PolyFect reagent (Qiagen). Parthanatos was induced by the treatment of 50 μM MNNG for 15 min in SH-SY5Y cells. ABT-888 or PAAN/MIF inhibitors were pretreated with indicated concentration 1 h before MNNG treatment and cell death were assessed after 24 h. Primary cortical neurons from WT, PAAN/MIF KO, E22Q KI or P1G KI embryos were prepared as previously described See Kam et al. (2018) Science 362:eaat8407. Briefly, the cortex was dissected and cultured at embryonic day 16 in neurobasal media supplemented with B-27, 0.5 mM L-glutamine, penicillin and streptomycin (Invitrogen). Primary neurons were infected with AAV2-control, AAV2-PAAN/MIF WT, AAV2-PAAN/MIF E22Q, AAV2-PAAN/MIF E22A or AAV2-MIF P1G (ViGene Biosciences) at days in vitro (DIV) 4-5. ABT-888 or PAAN/MIF inhibitors were applied to neurons 1 h before α-syn PFF treatment. The neuron growth medium was replaced with fresh medium alone or including inhibitors every 3-4 days. α-syn PFF was added at DIV 7 and further incubated for indicated times followed by the cell death assay or biochemical experiments.
as §1

[1] = molecular target: T1, PAAN/MIF tautomerase activity (Homo sapiens, UniProt P14174); assay: Tautomerase activity assay (D-dopachrome methyl ester); type: biochemical; conditions: 10 μM compounds
T1 construct: GST (N, cleaved yes); made in house; host or cells: Escherichia coli
T1 sequence (P14174 1-115): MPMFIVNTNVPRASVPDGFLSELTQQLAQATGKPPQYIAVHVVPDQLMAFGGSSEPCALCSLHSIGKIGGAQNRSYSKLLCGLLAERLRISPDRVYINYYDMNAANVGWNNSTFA
Experimental: Tautomerase activity assay. The keto-enol tautomeric conversion of D-dopachrome methyl ester by PAAN/MIF was used as described previously. See Bendraft et al. (1997) Biochemistry 36:15356-62. Briefly, a fresh solution of D-dopachrome methyl ester was prepared by mixing 2 mML-3,4 dihydroxyphenylalanine methyl ester with 4 mM sodium peroxidate for 5 m at room temperature and then placed directly on ice before use. The enzymatic reaction was initiated at 25° C. by adding 20 μl of the dopachrome methyl ester substrate to 200 μl of PAAN/MIF WT (final concentration 5 μM) with or without 10 μM compounds (compounds 41, 56, 76, and 77) in tautomerase assay buffer (50 mM potassium phosphate, 1 mM EDTA, pH 6.0). To enhance substrate stability, excess sodium meta-periodate was removed using […] disposable columns (Waters). The activity was determined by the decrease in absorbance at 475 nm using a spectrophotometer (Molecular Devices).

EcoRI = EcoRI (Escherichia coli, UniProt P00642); assay: In vitro nuclease assay of EcoRI (pcDNA3 substrate); type: biochemical
Experimental: Nuclease assay. Purified PAAN/MIF protein (4 μM) was incubated with compounds (10 μM) in the nuclease buffer [10 mM Tris-C1 (pH 7.0) and 10 mM MgCl2] for 20 m on ice. Then samples were added with 1 μM of PAAN/MIF substrate (PS30 or RF) and incubated for 1 h at 37° C. The reaction was terminated with loading buffer containing 10 mM EDTA and separated on 15% TBE-urea polyacrylamide (PAGE) gel or 20% TBE PAGE gel. For other nucleases (EcoRI and EcoRV) assays, pcDNA3 (500 ng/reaction) was used as a substrate and 0.01 unit of Exonulcase III were incubated with small dsDNA (Sequence ID NO 4:5′-[…]-3′ and Sequence ID NO 5:5′-[…]-3′).

Chain of EcoRI (P00642 whole entry): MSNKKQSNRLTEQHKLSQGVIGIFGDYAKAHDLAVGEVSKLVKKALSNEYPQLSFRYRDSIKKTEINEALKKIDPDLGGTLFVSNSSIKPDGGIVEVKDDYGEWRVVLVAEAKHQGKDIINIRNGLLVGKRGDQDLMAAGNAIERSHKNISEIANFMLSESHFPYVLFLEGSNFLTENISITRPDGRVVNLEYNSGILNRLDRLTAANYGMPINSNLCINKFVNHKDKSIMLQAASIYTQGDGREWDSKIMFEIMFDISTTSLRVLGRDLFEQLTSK

Row | Compound | TNFα and Z-VAD-induced necroptosis (HT 22 cells) | α-syn PFF-induced cell death in mouse cortical neurons (primary cortical neurons) | MIF's tautomerase activity [1] | nuclease activity of EcoRI (EcoRI) | toxicity when applied to primary cortical neurons (primary cortical neurons)
1 | COc1ccc(CC[C@H]2OC(=O)[C@@H]3CCCCN3C(=O)C(=O)C(C)(C)COC(=O)C=CCCN(C)C(=O)[C@@H]3CCCN3C(=O)[C@H](COC(C)(C)C)N(C)C(=O)C(c3ccccc3)NC(=O)[C@H](C)N(C)C(=O)COc3cc(F)cc2c3)cc1OC (mixture of isomers) [compound 121] | failed to inhibit | protected |  |  | 
2 | COc1ccc(CC[C@H]2OC(=O)[C@@H]3CCCCN3C(=O)C(=O)C(C)(C)COC(=O)C=CCCN(C)C(=O)[C@@H]3CCCN3C(=O)[C@H](COC(C)(C)C)N(C)C(=O)C(c3ccccc3)NC(=O)CN(C)C(=O)COc3cccc2c3)cc1OC (stereo partly shown) [compound 41] | not prevented | attenuated | Neither did they inhibit | do not inhibit | some toxicity
3 | COc1ccc(CC[C@H]2OC(=O)[C@@H]3CCCCN3C(=O)C(=O)C(C)(C)COC(=O)C=CCCN(C)C(=O)[C@@H]3CCCN3C(=O)[C@H](COC(C)(C)C)N(C)C(=O)C(c3ccccc3)NC(=O)[C@H](C)N(C)C(=O)COc3cccc2c3)cc1OC (stereo partly shown) [compound 56] | not prevented; also recorded: failed to inhibit | attenuated; also recorded: protected | Neither did they inhibit | do not inhibit | 
4 | COc1ccc(CC[C@H]2OC(=O)[C@@H]3CCCCN3C(=O)C(=O)C(C)(C)COC(=O)C=CCCN(C)C(=O)CNC(=O)[C@H](C(C)C)N(C)C(=O)[C@@H](Cc3ccccc3)NC(=O)[C@H](CC(C)C)N(C)C(=O)CCC(=O)Nc3cccc2c3)cc1OC [compound 76] | not prevented |  | Neither did they inhibit | do not inhibit | some toxicity
5 | COc1ccc(CC[C@H]2OC(=O)[C@@H]3CCCCN3C(=O)C(=O)C(C)(C)COC(=O)C=CCCN(C)C(=O)[C@H](C)NC(=O)[C@H](C(C)C)N(C)C(=O)[C@@H](Cc3ccccc3)NC(=O)[C@H](CC(C)C)N(C)C(=O)CCC(=O)Nc3cccc2c3)cc1OC [compound 77] | not prevented | attenuated | Neither did they inhibit | do not inhibit | 
